Reference: PubChem BioAssay AID1845195 (Molecular Pharmacology Branch, DTP, NCI, 2023)

System: 156681-154-R-J1 tumor spheroid viability
Assay: Anticancer human tumor 156681-154-R-J1 patient-derived melanoma cell line growth inhibition
Conditions: spheroids with HUVEC and MSC; for IC50: curve of first compound; for viability, T/C: stronger effect = lower value
How it was run: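 Single agents and combinations were tested on spheroids built from tumor cells plus HUVEC and hMSC, at half-log dilutions starting at or near clinical Cmax, else 10 microM; final DMSO 0.25% (v/v).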

[1] = second compound 30 pM, first compound 0.0316 µM
[2] = second compound 30 pM, first compound 0.1 µM
[3] = second compound 30 pM, first compound 0.316 µM
[4] = second compound 30 pM, first compound 1 µM
[5] = second compound 30 pM, first compound 3.16 µM
[6] = second compound 30 pM, first compound 10 µM
[7] = second compound 94.9 pM, first compound 0.0316 µM
[8] = second compound 94.9 pM, first compound 0.1 µM
[9] = second compound 94.9 pM, first compound 0.316 µM
[10] = second compound 94.9 pM, first compound 1 µM
[11] = second compound 94.9 pM, first compound 3.16 µM
[12] = second compound 94.9 pM, first compound 10 µM
[13] = second compound 0.0003 µM, first compound 0.0316 µM
[14] = second compound 0.0003 µM, first compound 0.1 µM
[15] = second compound 0.0003 µM, first compound 0.316 µM
[16] = second compound 0.0003 µM, first compound 1 µM
[17] = second compound 0.0003 µM, first compound 3.16 µM
[18] = second compound 0.0003 µM, first compound 10 µM
[19] = second compound 0.000949 µM, first compound 0.0316 µM
[20] = second compound 0.000949 µM, first compound 0.1 µM
[21] = second compound 0.000949 µM, first compound 0.316 µM
[22] = second compound 0.000949 µM, first compound 1 µM
[23] = second compound 0.000949 µM, first compound 3.16 µM
[24] = second compound 0.000949 µM, first compound 10 µM
[25] = second compound 0.003 µM, first compound 0.0316 µM
[26] = second compound 0.003 µM, first compound 0.1 µM
[27] = second compound 0.003 µM, first compound 0.316 µM
[28] = second compound 0.003 µM, first compound 1 µM
[29] = second compound 0.003 µM, first compound 3.16 µM
[30] = second compound 0.003 µM, first compound 10 µM
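Also: spheroids exposed to compounds for 7 days before readout.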
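For viability, T/C in this document: percent of vehicle control viability where 100% = DMSO-treated spheroids.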

Row | SMILES | IC50 (second compound 30 pM) | IC50 (second compound 94.9 pM) | IC50 (second compound 0.0003 µM) | IC50 (second compound 0.000949 µM) | IC50 (second compound 0.003 µM) | viability, T/C [1] | viability, T/C [2] | viability, T/C [3] | viability, T/C [4] | viability, T/C [5] | viability, T/C [6] | viability, T/C [7] | viability, T/C [8] | viability, T/C [9] | viability, T/C [10] | viability, T/C [11] | viability, T/C [12] | viability, T/C [13] | viability, T/C [14] | viability, T/C [15] | further results
1 | CC(C)n1c(=O)n(C)c2cnc3cc(F)c(-c4ccc(OCCCN5CCCCC5)nc4)cc3c21 + COc1cc2c(cc1O)CCNC21CSC2c3c(OC(C)=O)c(C)c4c(c3C(COC1=O)N1C(O)C3Cc5cc(C)c(OC)c(O)c5C(C21)N3C)OCO4 | > 10000 nM | > 10000 nM | 4750 nM | < 31.6 nM | < 31.6 nM | 101% | 120% | 87.2% | 105% | 104% | 90.3% | 106% | 91.1% | 103% | 95% | 108% | 73.5% | 66.9% | 63.5% | 61.7% | viability, T/C [16]: 65.7%; viability, T/C [17]: 85.7%; viability, T/C [18]: 15.9%; viability, T/C [19]: 6.13%; viability, T/C [20]: 2.85%; viability, T/C [21]: 4.29%; viability, T/C [22]: 3.82%; viability, T/C [23]: 4.41%; viability, T/C [24]: 0.77%; viability, T/C [25]: 0.23%; viability, T/C [26]: 0.23%; viability, T/C [27]: 0.24%; viability, T/C [28]: 0.22%; viability, T/C [29]: 0.18%; viability, T/C [30]: 0.24%
2 | CC1COCCN1c1cc(-c2ccnn2C)c2ccnc(-c3ccn[nH]3)c2n1 (stereo not given) + COc1cc2c(cc1O)CCNC21CSC2c3c(OC(C)=O)c(C)c4c(c3C(COC1=O)N1C(O)C3Cc5cc(C)c(OC)c(O)c5C(C21)N3C)OCO4 | 190 nM | 104 nM | < 31.6 nM | < 31.6 nM | < 31.6 nM | 96.4% | 62.2% | 39.9% | 29.9% | 27.3% | 22.6% | 78.7% | 50.7% | 33.6% | 30% | 22.1% | 21.9% | 49.5% | 41.1% | 23.9% | viability, T/C [16]: 20.6%; viability, T/C [17]: 21.3%; viability, T/C [18]: 20.1%; viability, T/C [19]: 6.51%; viability, T/C [20]: 2.7%; viability, T/C [21]: 4.04%; viability, T/C [22]: 3.29%; viability, T/C [23]: 0.29%; viability, T/C [24]: 0.17%; viability, T/C [25]: 0.23%; viability, T/C [26]: 0.22%; viability, T/C [27]: 0.16%; viability, T/C [28]: 0.13%; viability, T/C [29]: 0.14%; viability, T/C [30]: 0.25%
3 | COc1cc(C)[nH]c(=O)c1CN1CCc2c(Cl)cc(C(OC)C3COC3)c(Cl)c2C1=O (stereo not given) + COc1cc2c(cc1O)CCNC21CSC2c3c(OC(C)=O)c(C)c4c(c3C(COC1=O)N1C(O)C3Cc5cc(C)c(OC)c(O)c5C(C21)N3C)OCO4 | > 10000 nM | > 10000 nM | > 10000 nM | < 31.6 nM | < 31.6 nM | 88.8% | 112% | 94.9% | 93.3% | 92.6% | 120% | 90.9% | 98.3% | 106% | 116% | 106% | 98.1% | 77.9% | 82.3% | 87.7% | viability, T/C [16]: 80.1%; viability, T/C [17]: 73.3%; viability, T/C [18]: 67.2%; viability, T/C [19]: 6.81%; viability, T/C [20]: 5.99%; viability, T/C [21]: 5.88%; viability, T/C [22]: 5.47%; viability, T/C [23]: 3.42%; viability, T/C [24]: 2.93%; viability, T/C [25]: 0.33%; viability, T/C [26]: 0.34%; viability, T/C [27]: 0.33%; viability, T/C [28]: 0.41%; viability, T/C [29]: 0.38%; viability, T/C [30]: 0.48%
4 | COc1ccc([C@@H](O)c2cc(-c3ncnc4cc(N5CCOCC5)ccc34)c(F)cc2Cl)nn1 + COc1cc2c(cc1O)CCNC21CSC2c3c(OC(C)=O)c(C)c4c(c3C(COC1=O)N1C(O)C3Cc5cc(C)c(OC)c(O)c5C(C21)N3C)OCO4 | 9850 nM | 5110 nM | 427 nM | < 31.6 nM | < 31.6 nM | 118% | 107% | 88.5% | 84.7% | 64% | 49.5% | 108% | 92% | 89.9% | 69.5% | 55.9% | 41.5% | 83.5% | 79.5% | 54.1% | viability, T/C [16]: 32.4%; viability, T/C [17]: 4.29%; viability, T/C [18]: 0.28%; viability, T/C [19]: 5.23%; viability, T/C [20]: 2.87%; viability, T/C [21]: 0.68%; viability, T/C [22]: 0.1%; viability, T/C [23]: 0.07%; viability, T/C [24]: 0.18%; viability, T/C [25]: 0.27%; viability, T/C [26]: 0.3%; viability, T/C [27]: 0.22%; viability, T/C [28]: 0.18%; viability, T/C [29]: 0.16%; viability, T/C [30]: 0.28%
